Legend:
[1] = target: kappa (h) (KOP) (Homo sapiens, UniProt P41145); test: biochemical; assay type: binding
[2] = target: T1, cathepsin B (h) (Homo sapiens, UniProt P07858); test: Eurofins panel: cathepsin B (h) enzymatic activity; assay type: biochemical; details: 1.0E-05 M; cathepsin B (h)
T1 construct: Eurofins (panel run by the vendor)

[3] = target: human monoamine oxidase-B (MAO-B) (Homo sapiens, UniProt P27338); test: biochemical
[4] = target: BZDp (TSPO) (h) (Homo sapiens, UniProt P30536); test: Eurofins panel: BZDp (TSPO) (h) (antagonist radioligand); details: 1.0E-05 M; BZDp (TSPO) (h) (antagonist radioligand)
BZDp (TSPO) (h), sequence (P30536 whole entry): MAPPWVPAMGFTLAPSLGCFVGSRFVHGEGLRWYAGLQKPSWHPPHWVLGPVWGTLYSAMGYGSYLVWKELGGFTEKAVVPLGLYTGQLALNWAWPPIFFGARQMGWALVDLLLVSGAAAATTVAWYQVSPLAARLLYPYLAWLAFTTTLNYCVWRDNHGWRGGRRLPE

human monoamine oxidase-B (MAO-B), sequence (P27338 whole entry): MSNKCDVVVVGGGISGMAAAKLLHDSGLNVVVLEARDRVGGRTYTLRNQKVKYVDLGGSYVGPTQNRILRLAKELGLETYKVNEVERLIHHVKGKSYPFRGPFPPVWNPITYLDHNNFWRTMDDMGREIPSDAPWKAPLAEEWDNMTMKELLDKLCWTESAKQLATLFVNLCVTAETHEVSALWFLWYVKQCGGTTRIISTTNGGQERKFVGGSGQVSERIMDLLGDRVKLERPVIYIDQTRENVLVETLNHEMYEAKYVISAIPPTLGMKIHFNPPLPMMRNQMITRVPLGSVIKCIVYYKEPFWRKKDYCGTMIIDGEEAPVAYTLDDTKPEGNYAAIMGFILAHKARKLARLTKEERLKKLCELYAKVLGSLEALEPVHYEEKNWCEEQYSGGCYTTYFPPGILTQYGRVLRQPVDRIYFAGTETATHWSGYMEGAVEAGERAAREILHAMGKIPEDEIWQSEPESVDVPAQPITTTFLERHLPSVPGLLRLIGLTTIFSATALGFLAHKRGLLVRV
kappa (h) (KOP), sequence (P41145 whole entry): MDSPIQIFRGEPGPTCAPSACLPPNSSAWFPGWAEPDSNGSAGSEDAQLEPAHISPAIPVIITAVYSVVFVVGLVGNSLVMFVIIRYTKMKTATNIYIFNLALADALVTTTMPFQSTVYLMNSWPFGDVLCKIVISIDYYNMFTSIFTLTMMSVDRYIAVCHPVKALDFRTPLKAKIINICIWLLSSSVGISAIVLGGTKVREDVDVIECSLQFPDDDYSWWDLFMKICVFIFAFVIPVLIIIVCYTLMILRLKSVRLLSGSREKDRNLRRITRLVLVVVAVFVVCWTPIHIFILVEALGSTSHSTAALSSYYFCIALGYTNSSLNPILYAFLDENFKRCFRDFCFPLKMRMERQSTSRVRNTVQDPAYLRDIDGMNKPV

`Fc1nc(N2CCOCC2)ccc1-c1cc2ccccc2[nH]1` [Compound 75, 4-(6-Fluoro-5-(1H-indol-2-yl)pyridin-2-yl)morpholine] was tested, and the inhibition at 10 µM [1] was 7.11%, the “% Inhibition, Enzymatic activity” value [2] was -8.47E+00% and the inhibition at 10 µM [3] was 61%. For the same compound, the “% Inhibition, Specific binding” value [4] was 21.7657%.

Source: publication PMC11956013, “Structure–Activity Relationships and Evaluation of 2-(Heteroaryl-cycloalkyl)-1H-indoles as Tauopathy Positron Emission Tomography Radiotracers” (Journal of Medicinal Chemistry, 2025)
